Assay results published in patent publication US8158636B2, “Compounds and methods for kinase modulation, and indications therefor” (Plexxikon Inc., priority 2008, dated 2012).
pIC50: −log10 of the molar value.

What was measured:
Assay type in all cases: biochemical
[1] = biological target: B-Raf V600E (Homo sapiens, UniProt P15056, V600E); test: Kinase activity assay, B-Raf V600E; settings: Table 1c; read-out: activity toward kinase B-Raf V600E, IC50
Excerpt: (§1) Assays for the activity of kinases, including, but not limited to, Fms, Kit, B-Raf, B-Raf V600E, c-Raf-1, and TrkA are known in the art, for example as described in US Patent Publication Number US20070032519 and U.S. patent application Ser. No. 11/473,347 (see also, PCT publication WO2007002433), the disclosures of which are hereby incorporated by reference with respect to such assays.

[2] = biological target: Fms (Homo sapiens, UniProt P07333); test: Kinase activity assay, Fms; settings: Table 1h; read-out: activity toward kinase Fms, IC50
Excerpt: as §1

[3] = biological target: Kdr (Homo sapiens, UniProt P35968); test: Kinase activity assay, Kdr; settings: Table 1i; read-out: activity toward kinase Kdr, IC50
Excerpt: as §1

[4] = biological target: Kit (Homo sapiens, UniProt P10721); test: Kinase activity assay, Kit; settings: Table 1j; read-out: activity toward kinase Kit, IC50
Excerpt: as §1

[5] = biological target: TrkA (Homo sapiens, UniProt P04629); test: Kinase activity assay, TrkA; settings: Table 1m; read-out: activity toward kinase TrkA, IC50
Excerpt: as §1

[6] = biological target: C-Raf (Homo sapiens, UniProt P04049); test: Kinase activity assay, C-Raf; settings: Table 1d; read-out: activity toward kinase C-Raf, IC50
Excerpt: as §1

Measured: pIC50

Kit, sequence (P10721 26-976): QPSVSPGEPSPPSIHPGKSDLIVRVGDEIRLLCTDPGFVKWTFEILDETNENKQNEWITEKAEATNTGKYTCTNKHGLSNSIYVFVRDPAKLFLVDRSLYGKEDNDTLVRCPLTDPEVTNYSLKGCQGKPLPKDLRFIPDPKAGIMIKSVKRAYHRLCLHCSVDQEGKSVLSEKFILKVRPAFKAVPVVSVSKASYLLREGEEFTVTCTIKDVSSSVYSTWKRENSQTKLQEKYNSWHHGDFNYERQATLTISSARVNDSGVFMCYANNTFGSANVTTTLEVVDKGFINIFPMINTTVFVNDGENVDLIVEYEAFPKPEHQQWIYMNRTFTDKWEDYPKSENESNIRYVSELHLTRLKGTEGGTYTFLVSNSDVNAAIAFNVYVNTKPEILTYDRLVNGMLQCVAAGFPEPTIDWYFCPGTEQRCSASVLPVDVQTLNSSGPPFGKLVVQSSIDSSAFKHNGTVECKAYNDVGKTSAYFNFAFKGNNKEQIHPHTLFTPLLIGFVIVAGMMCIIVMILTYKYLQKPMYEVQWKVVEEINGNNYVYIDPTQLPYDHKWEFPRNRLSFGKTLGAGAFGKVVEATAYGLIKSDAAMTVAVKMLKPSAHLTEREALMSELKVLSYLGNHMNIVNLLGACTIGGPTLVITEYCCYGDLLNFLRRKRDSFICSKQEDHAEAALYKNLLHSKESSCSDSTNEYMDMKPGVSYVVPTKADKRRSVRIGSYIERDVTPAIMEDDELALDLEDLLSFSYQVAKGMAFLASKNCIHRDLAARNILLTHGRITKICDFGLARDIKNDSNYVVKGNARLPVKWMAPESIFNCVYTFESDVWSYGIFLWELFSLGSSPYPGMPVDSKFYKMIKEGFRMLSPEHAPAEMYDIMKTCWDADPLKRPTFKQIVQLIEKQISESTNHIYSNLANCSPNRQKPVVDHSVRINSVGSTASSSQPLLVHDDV
Kdr, sequence (P35968 20-1356): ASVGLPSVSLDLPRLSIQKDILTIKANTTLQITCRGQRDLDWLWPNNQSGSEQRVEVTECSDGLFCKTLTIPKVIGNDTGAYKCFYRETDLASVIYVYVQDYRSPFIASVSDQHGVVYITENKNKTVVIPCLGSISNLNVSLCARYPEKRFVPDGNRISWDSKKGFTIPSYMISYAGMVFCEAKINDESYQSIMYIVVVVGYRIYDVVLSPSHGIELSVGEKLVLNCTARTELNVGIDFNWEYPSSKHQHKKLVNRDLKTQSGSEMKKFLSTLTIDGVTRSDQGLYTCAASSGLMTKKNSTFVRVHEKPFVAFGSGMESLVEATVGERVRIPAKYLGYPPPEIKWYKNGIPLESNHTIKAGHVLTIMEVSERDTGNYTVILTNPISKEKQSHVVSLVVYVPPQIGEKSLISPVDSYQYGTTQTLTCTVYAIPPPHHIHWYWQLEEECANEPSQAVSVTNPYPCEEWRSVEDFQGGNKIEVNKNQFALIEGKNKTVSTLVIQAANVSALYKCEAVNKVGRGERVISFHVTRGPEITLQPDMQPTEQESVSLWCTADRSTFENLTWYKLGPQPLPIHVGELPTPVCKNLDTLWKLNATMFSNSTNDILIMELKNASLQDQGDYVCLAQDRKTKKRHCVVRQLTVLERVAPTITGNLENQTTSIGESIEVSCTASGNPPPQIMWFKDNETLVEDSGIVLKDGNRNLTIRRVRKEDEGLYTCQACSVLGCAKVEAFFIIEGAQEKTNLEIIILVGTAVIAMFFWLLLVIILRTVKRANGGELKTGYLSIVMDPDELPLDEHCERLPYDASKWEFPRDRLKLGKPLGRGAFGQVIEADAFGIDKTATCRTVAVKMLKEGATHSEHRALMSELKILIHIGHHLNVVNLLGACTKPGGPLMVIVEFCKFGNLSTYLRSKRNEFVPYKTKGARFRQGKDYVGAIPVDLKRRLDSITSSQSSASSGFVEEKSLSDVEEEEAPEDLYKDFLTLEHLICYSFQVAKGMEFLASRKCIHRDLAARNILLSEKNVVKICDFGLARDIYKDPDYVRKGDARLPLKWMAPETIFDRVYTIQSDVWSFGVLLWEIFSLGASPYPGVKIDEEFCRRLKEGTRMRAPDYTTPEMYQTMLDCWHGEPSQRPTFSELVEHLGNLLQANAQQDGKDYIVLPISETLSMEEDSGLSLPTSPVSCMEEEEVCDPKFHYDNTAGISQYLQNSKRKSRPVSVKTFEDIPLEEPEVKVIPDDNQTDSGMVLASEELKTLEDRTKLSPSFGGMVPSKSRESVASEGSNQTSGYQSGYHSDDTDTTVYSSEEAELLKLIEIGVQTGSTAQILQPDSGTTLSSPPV
Fms, sequence (P07333 20-972): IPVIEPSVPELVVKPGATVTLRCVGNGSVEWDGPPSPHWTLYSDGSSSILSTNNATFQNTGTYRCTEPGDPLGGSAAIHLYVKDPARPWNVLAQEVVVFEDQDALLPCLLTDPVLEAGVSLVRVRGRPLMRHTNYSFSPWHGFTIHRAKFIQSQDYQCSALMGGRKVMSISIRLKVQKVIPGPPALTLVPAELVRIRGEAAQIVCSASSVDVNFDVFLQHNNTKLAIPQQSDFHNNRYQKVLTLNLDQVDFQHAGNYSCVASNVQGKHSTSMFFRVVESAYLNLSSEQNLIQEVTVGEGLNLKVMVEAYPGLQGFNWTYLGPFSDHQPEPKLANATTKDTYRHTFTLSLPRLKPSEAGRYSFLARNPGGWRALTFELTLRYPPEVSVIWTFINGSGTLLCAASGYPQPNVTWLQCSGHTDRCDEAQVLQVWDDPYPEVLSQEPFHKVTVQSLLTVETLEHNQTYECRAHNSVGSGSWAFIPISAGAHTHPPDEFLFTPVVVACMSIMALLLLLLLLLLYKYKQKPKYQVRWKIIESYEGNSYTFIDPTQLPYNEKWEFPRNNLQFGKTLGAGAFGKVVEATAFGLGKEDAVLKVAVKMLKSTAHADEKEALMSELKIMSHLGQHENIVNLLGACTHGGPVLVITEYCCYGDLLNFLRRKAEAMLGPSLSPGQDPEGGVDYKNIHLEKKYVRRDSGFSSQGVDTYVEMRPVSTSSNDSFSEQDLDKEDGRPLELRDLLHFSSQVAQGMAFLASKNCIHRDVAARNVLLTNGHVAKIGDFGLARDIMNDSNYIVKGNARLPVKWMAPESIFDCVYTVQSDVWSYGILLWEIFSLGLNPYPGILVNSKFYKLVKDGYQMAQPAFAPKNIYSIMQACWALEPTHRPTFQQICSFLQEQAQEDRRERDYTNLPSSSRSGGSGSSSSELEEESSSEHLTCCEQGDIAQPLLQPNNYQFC
B-Raf V600E, sequence (P15056 whole entry V600E): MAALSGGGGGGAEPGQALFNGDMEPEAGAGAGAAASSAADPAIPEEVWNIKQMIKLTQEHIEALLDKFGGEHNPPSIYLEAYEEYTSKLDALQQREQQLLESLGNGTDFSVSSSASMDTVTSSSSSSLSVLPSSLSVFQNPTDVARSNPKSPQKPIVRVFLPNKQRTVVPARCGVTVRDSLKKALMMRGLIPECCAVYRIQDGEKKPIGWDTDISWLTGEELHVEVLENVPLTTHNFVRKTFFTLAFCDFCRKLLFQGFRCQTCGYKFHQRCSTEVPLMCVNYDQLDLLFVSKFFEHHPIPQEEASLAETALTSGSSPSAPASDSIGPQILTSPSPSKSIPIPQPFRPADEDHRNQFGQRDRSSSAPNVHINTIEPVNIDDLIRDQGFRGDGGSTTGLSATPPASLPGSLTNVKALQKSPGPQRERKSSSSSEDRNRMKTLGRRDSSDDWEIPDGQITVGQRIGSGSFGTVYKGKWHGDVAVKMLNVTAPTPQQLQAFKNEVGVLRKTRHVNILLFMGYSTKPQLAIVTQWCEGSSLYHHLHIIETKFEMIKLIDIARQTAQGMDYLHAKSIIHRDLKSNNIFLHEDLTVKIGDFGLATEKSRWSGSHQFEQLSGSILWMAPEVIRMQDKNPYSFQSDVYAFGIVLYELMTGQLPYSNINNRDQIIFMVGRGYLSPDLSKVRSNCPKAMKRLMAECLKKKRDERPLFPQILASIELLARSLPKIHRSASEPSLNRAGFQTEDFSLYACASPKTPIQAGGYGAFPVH
TrkA, sequence (P04629 33-796): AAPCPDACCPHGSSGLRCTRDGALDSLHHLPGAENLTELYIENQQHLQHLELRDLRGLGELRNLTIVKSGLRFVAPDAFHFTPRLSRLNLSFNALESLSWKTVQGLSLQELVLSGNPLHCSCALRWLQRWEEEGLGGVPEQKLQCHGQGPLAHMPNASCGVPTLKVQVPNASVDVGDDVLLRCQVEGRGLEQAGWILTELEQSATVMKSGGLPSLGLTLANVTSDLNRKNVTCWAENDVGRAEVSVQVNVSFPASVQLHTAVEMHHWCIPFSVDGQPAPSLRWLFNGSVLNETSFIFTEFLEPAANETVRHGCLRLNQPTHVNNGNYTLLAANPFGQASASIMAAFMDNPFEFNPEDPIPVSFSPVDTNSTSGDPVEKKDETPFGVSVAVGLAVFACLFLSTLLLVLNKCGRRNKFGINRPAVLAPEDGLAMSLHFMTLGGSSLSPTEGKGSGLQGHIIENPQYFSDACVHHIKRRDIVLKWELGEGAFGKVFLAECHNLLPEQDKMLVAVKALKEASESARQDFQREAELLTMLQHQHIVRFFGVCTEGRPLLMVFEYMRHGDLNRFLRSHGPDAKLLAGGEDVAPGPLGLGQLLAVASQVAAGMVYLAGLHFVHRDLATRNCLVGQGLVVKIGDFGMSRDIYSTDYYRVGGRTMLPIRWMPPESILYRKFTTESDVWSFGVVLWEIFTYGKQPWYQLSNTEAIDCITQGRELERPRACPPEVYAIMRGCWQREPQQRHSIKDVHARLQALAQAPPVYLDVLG

Fc1cc(Cl)cc(CNc2ccc(Cc3c[nH]c4ncncc34)c(F)n2)c1 [P-0067, (3-Chloro-5-fluoro-benzyl)-[6-fluoro-5-(7H-pyrrolo[2,3-d]pyrimidin-5-ylmethyl)-pyridin-2-yl]-amine]
not listed: [6]
≥ 5.00: all other assays above

CN(C)c1ccccc1CNc1ccc(Cc2c[nH]c3ncncc23)c(F)n1 [P-0061, (2-Dimethylamino-benzyl)-[6-fluoro-5-(7H-pyrrolo[2,3-d]pyrimidin-5-ylmethyl)-pyridin-2-yl]-amine]
≥ 5.00: [2] | [3] | [4] | [5]

Cc1cc(F)cc(CNc2ccc(Cc3c[nH]c4ncncc34)c(F)n2)c1 [P-0064, (3-Fluoro-5-methyl-benzyl)-[6-fluoro-5-(7H-pyrrolo[2,3-d]pyrimidin-5-ylmethyl)-pyridin-2-yl]-amine]
≥ 5.00: [2] | [3] | [4] | [5]

Cc1cc(C)cc(CNc2ccc(Cc3c[nH]c4ncncc34)c(F)n2)c1 [P-0063, (3,5-Dimethyl-benzyl)-[6-fluoro-5-(7H-pyrrolo[2,3-d]pyrimidin-5-ylmethyl)-pyridin-2-yl]-amine]
not listed: [6]
≥ 5.00: all other assays above

COc1cc(CNc2ccc(Cc3c[nH]c4ncncc34)c(F)n2)cc(C(F)(F)F)c1 [P-0082, [6-Fluoro-5-(7H-pyrrolo[2,3-d]pyrimidin-5-ylmethyl)-pyridin-2-yl]-(3-methoxy-5-trifluoromethyl-benzyl)-amine]
≥ 5.00: [2] | [3] | [4] | [5]

Fc1nc(NCc2cc(C(F)(F)F)cc(C(F)(F)F)c2)ccc1Cc1c[nH]c2ncncc12 [P-0054, (3,5-Bis-trifluoromethyl-benzyl)-[6-fluoro-5-(7H-pyrrolo[2,3-d]pyrimidin-5-ylmethyl)-pyridin-2-yl]-amine]
≥ 5.00: [2] | [3] | [4] | [5]

COc1ncc(F)cc1CNc1ccc(Cc2c[nH]c3ncnc(OC)c23)c(F)n1 [P-0094, (5-Fluoro-2-methoxy-pyridin-3-ylmethyl)-[6-fluoro-5-(4-methoxy-7H-pyrrolo[2,3-d]pyrimidin-5-ylmethyl)-pyridin-2-yl]-amine]
≥ 5.00: [2] | [3] | [4] | [5]

COc1ncc(CNc2ccc(Cc3c[nH]c4ncnc(OC)c34)c(F)n2)cc1F [P-0091, (5-Fluoro-6-methoxy-pyridin-3-ylmethyl)-[6-fluoro-5-(4-methoxy-7H-pyrrolo[2,3-d]pyrimidin-5-ylmethyl)-pyridin-2-yl]-amine]
not listed: [6]
≥ 5.00: all other assays above

CCOc1ncccc1CNc1ccc(Cc2c[nH]c3ncncc23)c(F)n1 [P-0069, (2-Ethoxy-pyridin-3-ylmethyl)-[6-fluoro-5-(7H-pyrrolo[2,3-d]pyrimidin-5-ylmethyl)-pyridin-2-yl]-amine]
≥ 5.00: [2] | [3] | [4] | [5]

COc1ncc(F)cc1CNc1ncc(Cc2c[nH]c3ncnc(OC)c23)cn1 [P-0093, (5-Fluoro-2-methoxy-pyridin-3-ylmethyl)-[5-(4-methoxy-7H-pyrrolo[2,3-d]pyrimidin-5-ylmethyl)-pyrimidin-2-yl]-amine]
≥ 5.00: [6] | [2] | [3] | [4]

COc1ncc(CNc2ncc(Cc3c[nH]c4ncncc34)cn2)cc1F [P-0024, (5-Fluoro-6-methoxy-pyridin-3-ylmethyl)-[5-(7H-pyrrolo[2,3-d]pyrimidin-5-ylmethyl)-pyrimidin-2-yl]-amine]
≥ 5.00: [2] | [3] | [4] | [5]
